Data taken from EP2769738B1, “Conjugated TLR7 and/or TLR8 and TLR2 polycationic agonists” (Invivogen, priority 2013, dated 2014).
Values joined by “and” are separate entries in the source; they are usually repeats but may differ in a detail not shown here. Identical values can stand only once.

How the values were obtained:
[1] = Determination of nanoparticle (lipoplex) size by dynamic light scattering; format: physicochemical; conditions: ratio 3:24 (w:w); for Conformity (C)/ Non-conformity (NC) / Mean Diameter (nm): complexes with pDNA; for Mean Diameter (nm): dynamic light scattering at 25°C; for Mean Diameter (nm) / PDI: triplicate measurements; for PDI: polydispersity index of complexes with pDNA, 25°C
Method: • 1. Preparative HPLC Method: Unless otherwise indicated, the compounds described herein were purified by RP-MPLC ARMEN® Spot Flash Liquid Chromatography (ARMEN Instrument, Saint Ave, France) on a preparative column (SVF D26) packed with 25-40 µm C18 resin (Merck chimie SAS), by applying a linear gradient of 0-10% MeCN in NH4OAc (10 mM) solution (pH = 9) over 60 min at a 15 mL/min flow rate. The purification was monitored at 254 nm. Suitable fractions were pooled and lyophilised. • 2. Proton NMR Spectra: Unless otherwise indicated, all ^1H NMR spectra were run on a Bruker series 300 MHz instrument. Where so characterized, all observed protons are reported as parts-per-million (ppm) downfield from tetramethylsilane (TMS) or other internal reference in the appropriate solvent indicated. NMR spectra were recorded on a Brucker 300 spectrometer. For ^1H (300 MHz) spectra δ values were referenced to CDCI3-d1 (7.26 ppm), DMSO- d6 (2.50 ppm), D2O-d2 (4.79 ppm) or MeOD-d4 (3.31 ppm). The peak patterns are indicated as follows: s: singlet, sl: large singlet, d: doublet, t: triplet, q: quartet, m: multiplet. • 3. Mass Spectra (MS): Analyses were run on an Agilent Model 6130 quadrupole MS. Unless otherwise indicated, all mass spectral data for starting materials, intermediates and/or exemplary compounds are reported as mass/charge (m/z), having an (M+H)^+ molecular ion. The molecular ion reported was obtained by electrospray detection method (commonly referred to as an ESI MS). Compounds having an isotopic atom, such as bromine and the like, are generally reported according to the detected isotopic pattern, as appreciated by those skilled in the art. • 4. Particle size: Particle size was determined using a Malvern Nanosizer (Malvern, Worcestershire, UK) and Malvern ZETASIZER.RTM. (Malvern, Worcestershire, UK). • 5. Naming Convention The compounds disclosed and described herein have been named using the naming convention provided with Chem-Draw Ultra 11.0 software, available in Chem. Office. In some instances, compounds were named with the term "spermine" inserted where appropriate. For example, where the spermine is substituted with Boc, "N1,N5,N10-TriBoc-spermine" is added to the Chem-Draw nomenclature in the appropriate place. Chem-Draw utilizes the ISIS Draw software compound naming convention, as appreciated by those skilled in the art.
For pDNA:TLR7-TLR2 polyamine molecules complexes, a ratio pDNA:TLR7-TLR2 polyamine molecules of 3:24 (w:w) was prepared in serum-free culture medium or in 5% glucose. The TLR7-TLR2 conjugated compound of interest was prediluted in serum-free culture medium or in 5% glucose and incubated for 5 minutes at room temperature, prior to the addition of an endotoxin-free, salt-free preparation of pDNA. In these experiments, the pBsr2pCpGLacZh plasmid was used in the pDNA:TLR7-TLR2 polyamine molecule complexes. The pDNA:TLR7-TLR2 polyamine molecule mixtures were incubated at room temperature for 30 minutes to allow the formation of the complex. The control used in these experiments was the cationic lipid transfection agent LyoVec™ (InvivoGen) prepared in a similar manner.
In order to confirm that TLR7-TLR2 polyamine molecules complex DNA, lipoplex size was determined. The physical characterization of complex was achieved by dynamic light scattering using the analytical equipment for laser diffraction Zetasizer Nano-ZS (Malvern). pDNA:TLR7-TLR2 polyamine molecule complexes were prepared as described above. Subsequently, 50µl of pDNA: TLR7-TLR2 polyamine molecule complexes were placed into a disposable sizing cuvette and measurements were made under conditions defined according to manufacturer's instructions. The measurements were made at 25°C in triplicate and a size distribution report was obtained. […]

[2] = tested on: HEK293 cells; test: Cell transfection with SEAP plasmid, HEK293; format: cell-based, human; conditions: Figure 5A; in complex with pVitro14 LGFP SEAP plasmid, 48 hours, SEAP reporter gene expression
Method: (§1) The TLR7-TLR2 molecules were tested for their ability as polyamine molecules to transport plasmid DNA (pDNA) into cells. The pVitro14 LGFP SEAP plasmid (InvivoGen) was complexed to TLR7-TLR2 polyamine molecules and to the control cationic lipid transfection agent, LyoVec™ (InvivoGen). The human HEK293 (ATCC, CRL-1573) and mouse B16-F1 melanoma (ATCC, CRL-6323) cell lines were seeded at a density of 50 000 cells/well and 20 000 cells/well respectively, in the absence or presence of different volumes of the plasmid encoding for the SEAP protein in complex with TLR7-TLR2 polyamine molecules for 48 hours at 37°C and 10% CO2. Transfection efficiency was assessed by measuring SEAP reporter gene expression: 20 µl of supernatant was sampled and mixed with 180 µl of QUANTI-Blue™ Detection (InvivoGen). In the presence of alkaline phosphatase SEAP, the color of QUANTI-Blue™ changes from pink to purple/blue. The intensity of the blue hue reflects the activity of SEAP. The levels of SEAP secretion were determined quantitatively by reading the OD at 620-655 nm using a spectrophotometer, iMark™ Microplate Reader (BIO-RAD).

[3] = tested on: B16-F1 cells; test: Cell transfection with SEAP plasmid, B16-F1; format: cell-based, mouse; conditions: Figure 5B; in complex with pVitro14 LGFP SEAP plasmid, 48 hours, SEAP reporter gene expression
Method: as §1

[4] = tested on: B16-F1 tumor; test: Mouse B16-F1 tumor model, molecule alone; format: in vivo, C57BL/6 mice; conditions: intra-tumoral, 3 injections
Method: Measurements were performed under gas anesthesia.
The second group received intra-tumoral injections of CL413 molecule alone (a TLR7-TLR2 Pam2CSK4-based molecule). Third and forth groups received intra-tumoral injections of the TLR2 ligand, Pam2CSK4 alone, and the TLR7 ligand alone, respectively. A fifth group received a combined treatment of Pam2CSK4 and TLR7 ligand, in solution at the equivalent molecule quantity of the respective TLR2 and TLR7 moieties in CL413 (in 100µl Bionolyte G5® with Pluronic® F-68 2%) for a total of 3 injections.

Row | SMILES | Conformity (C)/ Non-conformity (NC) [1] | Mean Diameter (nm) [1] | PDI [1] | ability to transfect HEK293 cells [2] | ability to transfect B16-F1 cells [3] | tumor volume ([4]; Figure 8A, by day 23, compared to Pam2CSK4 alone, TLR7 ligand alone and vehicle control) | mice still alive (survival) ([4]; Figure 8B, by day 42)
1 | CCCCCCCCCCCCCCCC(=O)OCC(CSC[C@@H](N)C(=O)N[C@@H](CO)C(=O)N[C@@H](CCCCN)C(=O)N[C@@H](CCCCN)C(=O)N[C@@H](CCCCN)C(=O)N[C@H](CCCCN)C(=O)Nc1ccc(Cn2c(O)nc3c(N)nc(NCCCC)nc32)cc1)OC(=O)CCCCCCCCCCCCCCC (stereo in doubt) [CL413, (6S,9S,12S,15S,18S,21R)-6,25-diamino-21-(4-((6-amino-2-(butylamino)-8-hydroxy-9H-purin-9-yl)methyl)phenylcarbamoyl)-12,15,18-tris(4-aminobutyl)-9-(hydroxylmethyl)-7,10, 13,16,19-pentaoxo-4-thia-8,11,14,17,20-pentaazapentacosane-1,2-diyl dipalmitate] | C (ranged between 140 and 200 nm in diameter were considered to show conformity) | 140,1 nm and 140,2 nm and 139,1 nm | 0,178 and 0,187 and 0,229 | lack the ability to transfect cells | lack the ability to transfect cells | no increase in tumor volume | 100%
2 | CCCCCCCCCCCCCCCC(=O)N[C@@H](CSCC(COC(=O)CCCCCCCCCCCCCCC)OC(=O)CCCCCCCCCCCCCCC)C(=O)N[C@@H](CO)C(=O)N[C@@H](CCCCN)C(=O)N[C@@H](CCCCN)C(=O)N[C@@H](CCCCN)C(=O)N[C@@H](CCCCN)C(=O)Nc1ccc(Cn2c(O)nc3c(N)nc(NCCCC)nc32)cc1 (stereo partly drawn) [CL534, ((6R,9S,12S,15S,18S,21S)-25-amino-21-(4-((6-amino-2-(butylamino)-8-hydroxy-9H-purin-9-yl)methyl)phenylcarbamoyl)-12,15,18-tris(4-aminobutyl)-9-(hydroxylmethyl)-7,10,13,16,19-pentaoxo-6-palmitamido-4-thia-8,11,14,17,20-pentaazapentacosane-1,2-diyl dipalmitate] | C (ranged between 140 and 200 nm in diameter were considered to show conformity) | 165,5 nm and 187,1 nm and 182,3 nm | 0,352 and 0,394 and 0,354 | lack the ability to transfect cells | lack the ability to transfect cells |  | 
